From paper PMC4723341, “Ribonuclease H/DNA Polymerase HIV-1 Reverse Transcriptase Dual Inhibitor: Mechanistic Studies on the Allosteric Mode of Action of Isatin-Based Compound RMNC6” (PLoS ONE, 2016)

Legend:
[1] = tested on: HIV-1 RT-associated RNase H activity, V106A RT; assay: RNase H activity assay, V106A RT; format: biochemical, HIV-1 group M subtype B; details: V106A RT
Experimental: HIV RT-associated RNase H activity was measured as described in 100 μL reaction volume containing 50 mM Tris-HCl buffer pH 7.8, 6 mM MgCl2, 1 mM dithiothreitol (DTT), 80 mM KCl, 0.25 μM hybrid RNA/DNA 5'-GAUCUGAGCCUGGGAGCU-Fluorescin-3' (HPLC, dry, QC: Mass Check) (available from Metabion) 5'-Dabcyl-AGCTCCCAGGCTCAGATC-3'(HPLC, dry, QC: Mass Check), increasing concentrations of inhibitors, whose dilution were made in water, and different amount of enzymes according to a linear range of dose-response curve: 20 ng of WT RT; 60 ng K103N RT; 37.5 ng V106A RT; 75 ng V108A RT; 5 ng Y181C RT; 50 ng Y188A RT; 30 ng Y188L RT; 100 ng E224A RT; 37.5 ng P225A RT; 20 ng P226A RT; 18 ng F227A RT; 30 ng L228A RT; 30 ng W229A RT; 10 ng M230A RT; 30 ng G231A RT; 62.5 ng N474A RT; 1 μg Y501A RT; 100 ng A502F RT; 37.5 ng A508V RT; 38 ng HIV-1 group O RT. The reaction mixture was incubated for 1 h at 37°C, stopped by addition of EDTA and products were measured with a multilabel counter plate reader Victor 3 (Perkin Elmer model 1420–051) equipped with filters for 490/528 nm (excitation/emission wavelength)

[2] = tested on: HIV-2 RT; design: method as in PMID 15741178; details: HIV-2 RT versus HIV-1 RT; cited from earlier work
[3] = target: T1, HIV-1 RT-associated RDDP activity, V106A RT (Human immunodeficiency virus type 1 group M subtype B, UniProt P04585, V693A); assay: biochemical; design: species or system HIV-1 group M subtype B
T1 construct: The 1:1 ration between the p66/p51 subunits was also verified; made in house; host or cells: E. coli M15

[4] = target: T2, HIV-1 RT-associated RDDP activity, A502F RT (Human immunodeficiency virus type 1 group M subtype B, UniProt P04585, A1089F); assay: biochemical; design: species or system HIV-1 group M subtype B
T2 construct: The 1:1 ration between the p66/p51 subunits was also verified; made in house; host or cells: E. coli M15

[5] = tested on: HIV-1 RT-associated RDDP activity, F227A RT; assay: biochemical; design: species or system HIV-1 group M subtype B; details: F227A RT
[6] = target: T3, HIV-1 RT-associated RDDP activity, F227A RT (Human immunodeficiency virus type 1 group M subtype B, UniProt P04585, F814A); assay: biochemical; design: species or system HIV-1 group M subtype B
T3 construct: The 1:1 ration between the p66/p51 subunits was also verified; made in house; host or cells: E. coli M15

[7] = target: T4, HIV-1 RT-associated RDDP activity, Y181C RT (Human immunodeficiency virus type 1 group M subtype B, UniProt P04585, Y768C); assay: RDDP activity assay, Y181C RT; format: biochemical, HIV-1 group M subtype B
T4 construct: The 1:1 ration between the p66/p51 subunits was also verified; made in house; host or cells: E. coli M15

[8] = target: T5, HIV-1 RT-associated RDDP activity, P225A RT (Human immunodeficiency virus type 1 group M subtype B, UniProt P04585, P812A); assay: biochemical; design: species or system HIV-1 group M subtype B
T5 construct: The 1:1 ration between the p66/p51 subunits was also verified; made in house; host or cells: E. coli M15

[9] = UV spectra in the absence and presence of magnesium (chelating potential); format: physicochemical; details: in the presence of 6 mM MgCl2
Text: Since the mode of action of previously identified dual RT inhibitors was not determined, we decided to investigate the mechanism of RT inhibition by RMNC6 in comparison with available RNase H inhibitors and NNRTIs. […] RNase H inhibitors such as vynologous ureas (VUs) are known to destabilize the RT heterodimer by binding to an allosteric pocket in the RNase H domain at the interface between p66 and p51 subunits.

[10] = target: T6, HIV-1 RT-associated RDDP activity, W229A RT (Human immunodeficiency virus type 1 group M subtype B, UniProt P04585, W816A); assay: biochemical; design: species or system HIV-1 group M subtype B
T6 construct: The 1:1 ration between the p66/p51 subunits was also verified; made in house; host or cells: E. coli M15

[11] = target: T7, HIV-1 RT-associated RDDP activity, L228A RT (Human immunodeficiency virus type 1 group M subtype B, UniProt P04585, L815A); assay: biochemical; design: species or system HIV-1 group M subtype B
T7 construct: The 1:1 ration between the p66/p51 subunits was also verified; made in house; host or cells: E. coli M15

[12] = target: T8, HIV-1 RT-associated RDDP activity, P226A RT (Human immunodeficiency virus type 1 group M subtype B, UniProt P04585, P813A); assay: biochemical; design: species or system HIV-1 group M subtype B
T8 construct: The 1:1 ration between the p66/p51 subunits was also verified; made in house; host or cells: E. coli M15

[13] = target: T9, HIV-1 RT-associated RDDP activity, K103N RT (Human immunodeficiency virus type 1 group M subtype B, UniProt P04585, K690N); assay: RDDP activity assay, K103N RT; format: biochemical, HIV-1 group M subtype B
T9 construct: The 1:1 ration between the p66/p51 subunits was also verified; made in house; host or cells: E. coli M15

[14] = target: T10, HIV-1 RT-associated RDDP activity, wt RT (Human immunodeficiency virus type 1 group M subtype B, UniProt P04585); assay: biochemical; design: species or system HIV-1 group M subtype B
T10 construct: The 1:1 ration between the p66/p51 subunits was also verified; made in house; host or cells: E. coli M15

[15] = target: T11, HIV-1 RT-associated RDDP activity, N474A RT (Human immunodeficiency virus type 1 group M subtype B, UniProt P04585, N1061A); assay: biochemical; design: species or system HIV-1 group M subtype B
T11 construct: The 1:1 ration between the p66/p51 subunits was also verified; made in house; host or cells: E. coli M15

[16] = target: T12, HIV-1 RT-associated RDDP activity, V108A RT (Human immunodeficiency virus type 1 group M subtype B, UniProt P04585, V695A); assay: biochemical; design: species or system HIV-1 group M subtype B
T12 construct: The 1:1 ration between the p66/p51 subunits was also verified; made in house; host or cells: E. coli M15

Which “Fold of increase of RNase H IC50 with respect to wt RT” value [1] does the source give for `CC(C)c1ccc(O)c(=O)c(O)c1` [BTP, β-thujaplicinol, reference compound] here?
Its value is 0.8.

What about the “Times less susceptible than the HIV-1 enzyme” value [2] of the same compound?
The value was “about 3.7”.

Which IC50 [3] does the source give for `N#Cc1ccc(-c2csc(NN=C3C(=O)Nc4ccccc43)n2)cc1` [RMNC6, (Z)-4-(2-(2-(2-oxoindolin-3-ylidene)hydrazinyl)thiazol-4-yl)benzonitrile] here?
The IC50 was 25.1 ± 2.3 µM.

What about the “Fold of increase of RDDP IC50 with respect to wt RT” value (“Fold of increase of RDDP IC50” for short) ([3]; V106A RT) of the same compound?
Its value is 2.5.

What about the IC50 [4] of the same compound?
Its IC50 is 17.1 ± 2.1 µM.

What about the “Fold of increase of RDDP IC50” value ([4]; A502F RT) of the same compound?
Its value is 1.8.

What about the “Fold of increase of RDDP IC50” value [5] of the same compound?
Its value is 1.5.

And the IC50 [6]?
Its IC50 is 15.2 ± 0.9 µM.

And the IC50 [7]?
The IC50 was 5.4 ± 0.3 µM.

And the IC50 [8]?
Its IC50 is 3.1 ± 0.3 µM.

What about the “Fold of increase of RDDP IC50” value ([8]; P225A RT) of the same compound?
Its value is 0.3.

And the “Shift of maximum of absorbance (UV spectra)” value [9]?
The value was “did not shift”.

And the IC50 [10]?
Its IC50 is 15.4 ± 2.8 µM.

And the “Fold of increase of RDDP IC50” value ([10]; W229A RT)?
Its value is 1.6.

And the IC50 [11]?
Its IC50 is 13.1 ± 1.9 µM.

What about the IC50 [12] of the same compound?
The IC50 was 18.9 ± 0.7 µM.

And the “Fold of increase of RDDP IC50” value ([12]; P226A RT)?
Its value is 1.9.

What about the IC50 [13] of the same compound?
The IC50 was 13.6 ± 1 µM.

What about the IC50 [14] of the same compound?
Its IC50 is 9.8 ± 1.4 µM.

And the IC50 [15]?
The IC50 was 12.7 ± 1.7 µM.

And the “Fold of increase of RDDP IC50” value ([15]; N474A RT)?
Its value is 1.3.

What about the IC50 [16] of the same compound?
The IC50 was 33 ± 5.2 µM.

And the “Fold of increase of RDDP IC50” value ([16]; V108A RT)?
Its value is 3.4.
